From publication PMC4979471 (Cell Death Discovery, 2015)
Where two headings read alike, the source gives them in different places.

How the values were obtained:
Test in all cases: Kinase selectivity, P33-radiolabeled assay
Format in all cases: biochemical
Conditions in all cases: 10 μM ATP
ACK1 = target: T1, ACK1 (Homo sapiens, UniProt Q07912)
T1 construct: purchased Reaction Biology Corp
Method in brief: (§1)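 Reactions contained 10 μM ATP and 10 μM test compound, each run in duplicate. Kinase activity is expressed as a percentage of DMSO-treated controls.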

EPHB4 = target: T2, EPHB4 (Homo sapiens, UniProt P54760)
T2 construct: purchased Reaction Biology Corp
T2 sequence (P54760 16-987): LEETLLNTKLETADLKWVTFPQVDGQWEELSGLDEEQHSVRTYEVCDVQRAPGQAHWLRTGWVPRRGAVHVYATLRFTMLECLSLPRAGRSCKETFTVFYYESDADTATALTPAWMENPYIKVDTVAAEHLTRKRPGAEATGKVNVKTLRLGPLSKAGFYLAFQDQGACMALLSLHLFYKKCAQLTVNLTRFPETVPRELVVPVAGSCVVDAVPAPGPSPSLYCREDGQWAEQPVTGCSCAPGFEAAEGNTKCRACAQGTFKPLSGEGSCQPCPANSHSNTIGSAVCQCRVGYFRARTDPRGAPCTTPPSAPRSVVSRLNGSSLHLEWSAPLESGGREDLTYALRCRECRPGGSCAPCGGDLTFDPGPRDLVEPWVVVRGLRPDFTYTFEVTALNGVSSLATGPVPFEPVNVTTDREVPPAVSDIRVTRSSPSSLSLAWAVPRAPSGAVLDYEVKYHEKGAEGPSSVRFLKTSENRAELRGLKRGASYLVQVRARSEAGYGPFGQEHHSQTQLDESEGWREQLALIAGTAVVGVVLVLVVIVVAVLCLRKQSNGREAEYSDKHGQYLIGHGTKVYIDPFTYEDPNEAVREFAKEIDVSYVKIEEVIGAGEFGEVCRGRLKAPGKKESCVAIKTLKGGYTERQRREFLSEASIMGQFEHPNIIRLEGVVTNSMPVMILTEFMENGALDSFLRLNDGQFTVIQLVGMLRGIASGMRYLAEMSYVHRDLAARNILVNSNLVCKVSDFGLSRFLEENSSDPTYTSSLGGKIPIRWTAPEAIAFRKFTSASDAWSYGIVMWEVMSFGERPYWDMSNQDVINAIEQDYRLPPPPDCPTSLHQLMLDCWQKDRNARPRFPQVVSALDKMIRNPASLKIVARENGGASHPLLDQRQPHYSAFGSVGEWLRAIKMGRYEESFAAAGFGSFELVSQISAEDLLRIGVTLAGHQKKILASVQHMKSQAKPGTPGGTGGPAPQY
Method in brief: as §1

LOK/STK10 = target: T3, LOK/STK10 (Homo sapiens, UniProt O94804)
T3 construct: purchased Reaction Biology Corp
T3 sequence (O94804 whole entry): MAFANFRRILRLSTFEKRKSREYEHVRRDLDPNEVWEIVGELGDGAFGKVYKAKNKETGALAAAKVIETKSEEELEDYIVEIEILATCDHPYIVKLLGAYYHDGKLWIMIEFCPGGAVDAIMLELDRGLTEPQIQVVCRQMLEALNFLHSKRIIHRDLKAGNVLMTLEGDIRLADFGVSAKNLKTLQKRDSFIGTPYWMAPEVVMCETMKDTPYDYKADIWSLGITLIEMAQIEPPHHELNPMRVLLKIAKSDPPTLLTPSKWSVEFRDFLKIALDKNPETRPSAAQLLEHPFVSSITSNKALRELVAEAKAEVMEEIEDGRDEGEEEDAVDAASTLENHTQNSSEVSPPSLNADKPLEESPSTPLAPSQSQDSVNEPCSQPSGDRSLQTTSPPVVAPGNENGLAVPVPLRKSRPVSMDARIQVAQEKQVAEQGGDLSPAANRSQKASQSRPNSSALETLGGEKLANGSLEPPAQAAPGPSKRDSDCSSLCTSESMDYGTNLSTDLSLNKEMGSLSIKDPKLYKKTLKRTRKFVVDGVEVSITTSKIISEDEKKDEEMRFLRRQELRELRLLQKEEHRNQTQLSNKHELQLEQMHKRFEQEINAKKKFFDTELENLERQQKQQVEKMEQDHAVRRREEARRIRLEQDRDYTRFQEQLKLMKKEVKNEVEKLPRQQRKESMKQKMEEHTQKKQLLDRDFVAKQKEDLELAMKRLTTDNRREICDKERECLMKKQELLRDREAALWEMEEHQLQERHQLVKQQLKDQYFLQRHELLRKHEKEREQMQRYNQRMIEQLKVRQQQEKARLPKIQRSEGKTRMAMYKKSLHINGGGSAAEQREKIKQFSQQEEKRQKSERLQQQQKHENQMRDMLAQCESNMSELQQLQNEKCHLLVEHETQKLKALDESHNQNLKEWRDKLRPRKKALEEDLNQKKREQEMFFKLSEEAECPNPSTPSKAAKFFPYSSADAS
Method in brief: as §1

PKG1b = target: T4, PKG1b (Homo sapiens, UniProt Q13976)
T4 construct: purchased Reaction Biology Corp
T4 sequence (Q13976 1-686 isoform Q13976-2): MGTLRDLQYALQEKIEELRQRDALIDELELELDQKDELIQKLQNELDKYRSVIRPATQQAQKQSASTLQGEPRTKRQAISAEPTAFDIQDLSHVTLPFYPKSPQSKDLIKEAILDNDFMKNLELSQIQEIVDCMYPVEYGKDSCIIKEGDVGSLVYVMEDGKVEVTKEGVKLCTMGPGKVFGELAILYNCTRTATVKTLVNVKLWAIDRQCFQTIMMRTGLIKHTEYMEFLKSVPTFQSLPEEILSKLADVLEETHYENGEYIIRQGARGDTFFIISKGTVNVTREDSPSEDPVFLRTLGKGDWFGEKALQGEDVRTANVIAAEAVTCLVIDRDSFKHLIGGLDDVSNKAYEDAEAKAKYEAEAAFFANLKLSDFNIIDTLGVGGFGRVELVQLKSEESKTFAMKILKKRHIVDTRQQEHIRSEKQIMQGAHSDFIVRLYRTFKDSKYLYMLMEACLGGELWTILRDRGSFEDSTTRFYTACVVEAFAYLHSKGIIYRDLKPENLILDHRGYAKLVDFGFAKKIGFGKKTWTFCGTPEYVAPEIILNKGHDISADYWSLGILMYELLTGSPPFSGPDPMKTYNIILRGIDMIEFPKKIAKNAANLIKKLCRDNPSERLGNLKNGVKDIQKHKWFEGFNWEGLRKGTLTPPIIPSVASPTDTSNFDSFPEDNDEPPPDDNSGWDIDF
Method in brief: as §1

PKN2/PRK2 = target: T5, PKN2/PRK2 (Homo sapiens, UniProt Q16513)
T5 construct: purchased Reaction Biology Corp
T5 sequence (Q16513 whole entry): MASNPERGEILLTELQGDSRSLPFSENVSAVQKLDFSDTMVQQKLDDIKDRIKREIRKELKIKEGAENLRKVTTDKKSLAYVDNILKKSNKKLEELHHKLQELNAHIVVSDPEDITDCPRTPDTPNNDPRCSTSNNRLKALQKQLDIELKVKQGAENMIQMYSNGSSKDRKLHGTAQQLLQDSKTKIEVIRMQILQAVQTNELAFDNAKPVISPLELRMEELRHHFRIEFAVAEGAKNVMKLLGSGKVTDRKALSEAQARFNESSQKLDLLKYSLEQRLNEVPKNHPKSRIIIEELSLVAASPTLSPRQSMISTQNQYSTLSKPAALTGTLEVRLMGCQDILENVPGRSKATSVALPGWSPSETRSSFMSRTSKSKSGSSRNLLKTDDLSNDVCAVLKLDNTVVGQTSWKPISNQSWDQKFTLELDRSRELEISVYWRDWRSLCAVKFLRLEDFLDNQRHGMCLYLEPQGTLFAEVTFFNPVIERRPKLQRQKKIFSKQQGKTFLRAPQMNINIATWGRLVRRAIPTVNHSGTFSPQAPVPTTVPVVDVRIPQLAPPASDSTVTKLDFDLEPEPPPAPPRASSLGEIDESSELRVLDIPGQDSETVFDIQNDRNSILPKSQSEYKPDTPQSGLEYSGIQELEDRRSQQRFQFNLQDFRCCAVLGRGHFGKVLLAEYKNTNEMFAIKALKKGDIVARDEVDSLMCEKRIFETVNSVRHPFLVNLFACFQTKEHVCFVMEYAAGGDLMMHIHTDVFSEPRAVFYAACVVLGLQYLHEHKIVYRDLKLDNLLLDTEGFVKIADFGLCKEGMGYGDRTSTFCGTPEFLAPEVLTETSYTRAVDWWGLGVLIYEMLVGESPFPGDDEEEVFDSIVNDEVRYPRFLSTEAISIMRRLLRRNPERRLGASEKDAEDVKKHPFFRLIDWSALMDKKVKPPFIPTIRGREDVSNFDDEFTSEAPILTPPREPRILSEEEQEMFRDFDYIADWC
Method in brief: as §1

RSK1 = target: T6, RSK1 (Homo sapiens, UniProt Q15418)
T6 construct: purchased Reaction Biology Corp
T6 sequence (Q15418 whole entry): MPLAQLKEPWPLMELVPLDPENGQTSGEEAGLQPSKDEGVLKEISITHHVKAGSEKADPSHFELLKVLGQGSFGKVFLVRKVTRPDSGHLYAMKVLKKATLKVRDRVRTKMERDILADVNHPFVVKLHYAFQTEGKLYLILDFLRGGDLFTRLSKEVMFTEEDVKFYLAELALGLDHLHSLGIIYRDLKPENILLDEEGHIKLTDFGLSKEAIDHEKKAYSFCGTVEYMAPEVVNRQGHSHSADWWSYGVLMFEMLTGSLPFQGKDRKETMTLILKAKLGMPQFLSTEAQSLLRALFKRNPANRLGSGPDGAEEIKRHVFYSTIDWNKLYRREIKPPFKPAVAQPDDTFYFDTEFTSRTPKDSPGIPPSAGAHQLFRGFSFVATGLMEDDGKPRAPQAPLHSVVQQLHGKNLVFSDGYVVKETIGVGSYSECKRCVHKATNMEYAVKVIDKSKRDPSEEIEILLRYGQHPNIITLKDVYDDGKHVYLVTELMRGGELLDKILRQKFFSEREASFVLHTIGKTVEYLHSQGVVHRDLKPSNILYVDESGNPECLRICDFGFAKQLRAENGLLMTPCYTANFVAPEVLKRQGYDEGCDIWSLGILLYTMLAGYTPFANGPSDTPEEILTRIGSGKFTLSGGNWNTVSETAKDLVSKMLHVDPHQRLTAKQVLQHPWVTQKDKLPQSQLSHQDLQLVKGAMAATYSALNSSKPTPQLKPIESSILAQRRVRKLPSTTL
Method in brief: as §1

RSK2 = target: T7, RSK2 (Homo sapiens, UniProt P51812)
T7 construct: purchased Reaction Biology Corp
T7 sequence (P51812 whole entry): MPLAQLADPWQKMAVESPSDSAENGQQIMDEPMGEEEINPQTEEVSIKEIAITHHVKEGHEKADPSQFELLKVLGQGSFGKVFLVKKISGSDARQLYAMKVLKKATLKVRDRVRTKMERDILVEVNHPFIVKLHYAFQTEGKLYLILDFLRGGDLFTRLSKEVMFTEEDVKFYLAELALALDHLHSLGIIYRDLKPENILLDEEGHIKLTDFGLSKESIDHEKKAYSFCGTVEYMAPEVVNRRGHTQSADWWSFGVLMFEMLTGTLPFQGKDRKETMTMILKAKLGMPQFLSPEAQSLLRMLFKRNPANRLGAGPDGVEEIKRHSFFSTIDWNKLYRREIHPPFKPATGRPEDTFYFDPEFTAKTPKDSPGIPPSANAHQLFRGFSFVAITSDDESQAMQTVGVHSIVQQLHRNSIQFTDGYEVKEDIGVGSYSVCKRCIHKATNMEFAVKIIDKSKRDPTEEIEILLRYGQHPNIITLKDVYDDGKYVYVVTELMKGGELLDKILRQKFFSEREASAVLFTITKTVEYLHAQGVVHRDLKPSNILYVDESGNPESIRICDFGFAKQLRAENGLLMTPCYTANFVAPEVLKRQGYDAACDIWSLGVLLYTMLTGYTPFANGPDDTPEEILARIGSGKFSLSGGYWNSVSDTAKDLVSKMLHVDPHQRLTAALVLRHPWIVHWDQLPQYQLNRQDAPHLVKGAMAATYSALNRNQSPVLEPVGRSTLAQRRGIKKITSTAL
Method in brief: as §1

SRMS = target: T8, SRMS (Homo sapiens, UniProt Q9H3Y6)
T8 construct: purchased Reaction Biology Corp
T8 sequence (Q9H3Y6 whole entry): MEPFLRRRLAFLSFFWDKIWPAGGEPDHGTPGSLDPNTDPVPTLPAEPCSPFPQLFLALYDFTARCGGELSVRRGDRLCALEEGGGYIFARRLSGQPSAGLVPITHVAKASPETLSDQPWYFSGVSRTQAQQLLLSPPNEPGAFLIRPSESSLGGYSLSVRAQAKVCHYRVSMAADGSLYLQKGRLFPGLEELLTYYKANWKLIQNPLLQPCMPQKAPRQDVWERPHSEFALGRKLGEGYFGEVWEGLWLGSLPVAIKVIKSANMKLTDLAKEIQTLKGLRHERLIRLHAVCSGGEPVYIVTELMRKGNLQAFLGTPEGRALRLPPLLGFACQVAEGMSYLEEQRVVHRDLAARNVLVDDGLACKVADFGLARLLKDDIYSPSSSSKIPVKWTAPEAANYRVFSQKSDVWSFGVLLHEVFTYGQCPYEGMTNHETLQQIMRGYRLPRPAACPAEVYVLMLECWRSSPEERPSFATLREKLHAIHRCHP
Method in brief: as §1

TRKC = target: T9, TRKC (Homo sapiens, UniProt Q16288)
T9 construct: purchased Reaction Biology Corp
T9 sequence (Q16288 32-839): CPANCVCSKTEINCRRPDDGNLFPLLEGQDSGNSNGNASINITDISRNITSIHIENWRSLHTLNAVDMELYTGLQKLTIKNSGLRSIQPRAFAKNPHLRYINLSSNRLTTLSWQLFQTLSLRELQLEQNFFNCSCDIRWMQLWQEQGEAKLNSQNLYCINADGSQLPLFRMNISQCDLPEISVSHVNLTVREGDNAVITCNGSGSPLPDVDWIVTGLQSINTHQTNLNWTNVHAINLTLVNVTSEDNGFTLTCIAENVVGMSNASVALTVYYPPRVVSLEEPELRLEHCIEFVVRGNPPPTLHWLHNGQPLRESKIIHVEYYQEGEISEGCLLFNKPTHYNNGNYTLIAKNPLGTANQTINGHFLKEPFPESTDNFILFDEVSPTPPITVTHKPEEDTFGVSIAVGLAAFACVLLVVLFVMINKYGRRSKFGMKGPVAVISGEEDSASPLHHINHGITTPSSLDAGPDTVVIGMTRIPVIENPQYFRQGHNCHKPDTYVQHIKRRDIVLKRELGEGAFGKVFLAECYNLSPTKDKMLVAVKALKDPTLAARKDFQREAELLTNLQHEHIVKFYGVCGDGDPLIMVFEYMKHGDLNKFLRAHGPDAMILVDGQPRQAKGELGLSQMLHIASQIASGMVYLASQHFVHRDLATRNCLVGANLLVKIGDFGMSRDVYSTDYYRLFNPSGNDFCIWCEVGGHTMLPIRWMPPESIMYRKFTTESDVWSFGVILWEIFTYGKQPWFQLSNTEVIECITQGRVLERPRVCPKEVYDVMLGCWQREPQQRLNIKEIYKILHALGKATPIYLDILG
Method in brief: as §1

WNK2 = target: T10, WNK2 (Homo sapiens, UniProt Q9Y3S1)
T10 construct: purchased Reaction Biology Corp
Method in brief: as §1

[1] = read-out: % Enzyme Activity (relative to DMSO controls) AVG
[2] = read-out: % Enzyme Activity (relative to DMSO controls) Data 1
[3] = read-out: % Enzyme Activity (relative to DMSO controls) Data 2

## CC(C)(C)C(=O)N1N=CC[C@H]1c1ccccc1 [GSK′963]
ACK1; [1]
  remaining activity at 10 µM: 82.3%
ACK1; [2]
  remaining activity at 10 µM: 84.2%
ACK1; [3]
  remaining activity at 10 µM: 80.3%
EPHB4; [1]
  remaining activity at 10 µM: 101%
EPHB4; [2]
  remaining activity at 10 µM: 100%
EPHB4; [3]
  remaining activity at 10 µM: 101%
LOK/STK10; [1]
  remaining activity at 10 µM: 94%
LOK/STK10; [2]
  remaining activity at 10 µM: 93.1%
LOK/STK10; [3]
  remaining activity at 10 µM: 95%
PKG1b; [1]
  remaining activity at 10 µM: 80.5%
PKG1b; [2]
  remaining activity at 10 µM: 78.3%
PKG1b; [3]
  remaining activity at 10 µM: 82.6%
PKN2/PRK2; [1]
  remaining activity at 10 µM: 93.3%
PKN2/PRK2; [2]
  remaining activity at 10 µM: 97.5%
PKN2/PRK2; [3]
  remaining activity at 10 µM: 89.2%
RSK1; [1]
  remaining activity at 10 µM: 126%
RSK1; [2]
  remaining activity at 10 µM: 123%
RSK1; [3]
  remaining activity at 10 µM: 128%
RSK2; [1]
  remaining activity at 10 µM: 106%
RSK2; [2]
  remaining activity at 10 µM: 107%
RSK2; [3]
  remaining activity at 10 µM: 106%
SRMS; [1]
  remaining activity at 10 µM: 101%
SRMS; [2]
  remaining activity at 10 µM: 98.6%
SRMS; [3]
  remaining activity at 10 µM: 103%
TRKC; [1]
  remaining activity at 10 µM: 99.2%
TRKC; [2]
  remaining activity at 10 µM: 100%
TRKC; [3]
  remaining activity at 10 µM: 98%
WNK2; [1]
  remaining activity at 10 µM: 97.4%
WNK2; [2]
  remaining activity at 10 µM: 99.3%
WNK2; [3]
  remaining activity at 10 µM: 95.5%
